For one compound, Activity and zone of inhibition results are on record in ChEMBL document CHEMBL1159211, “Antifungal evaluation of pseudolaric acid B, a major constituent of Pseudolarix kaempferi” (J Nat Prod, 1995).

Activity calls are given as the source filed them. The calls are words filed in the database; no cut-off is given here.

For assay [1], the system named is Candida albicans. Put plainly: Antifungal activity against Candida albicans NIH B311 infected in mouse assessed as reduction in number of recovered colony-forming units assessed per mg of kidney at 3 mg/kg, ip administered 7 and 24 hrs after infection measured 16 hrs after final injection by tenfold serial dilution method relative to control. Type of assay: functional. On the set-up: scale not given: the % may be the effect or the level left. To be noted: route intraperitoneal.

The subject of assay [2] is Saccharomyces cerevisiae. Put plainly: Antimicrobial activity against Saccharomyces cerevisiae at 1 mg/mL by agar-well diffusion assay. Format: functional, organism-based.
Assay [3] deals with Aspergillus fumigatus. Put plainly: Antimicrobial activity against Aspergillus fumigatus at 1 mg/mL by agar-well diffusion assay. Format: functional. (In general: A growth-free zone around the sample is the usual read-out of agar diffusion tests.)
The subject of assay [4] is Nannizzia gypsea. Put plainly: Antimicrobial activity against Microsporum gypseum at 1 mg/mL by agar-well diffusion assay. Format: functional.
The subject of assay [5] is Staphylococcus aureus. Put plainly: Antimicrobial activity against Staphylococcus aureus at 1 mg/mL by agar-well diffusion assay. Type of assay: functional, organism-based.
Assay [6] concerns Cryptococcus neoformans. Put plainly: Antimicrobial activity against Cryptococcus neoformans at 1 mg/mL by agar-well diffusion assay. Format: functional.
The test system of assay [7] is Candida albicans. Put plainly: Antifungal activity against Candida albicans NIH B311 infected in mouse assessed as reduction in number of recovered colony-forming units assessed per mg of kidney at 7 mg/kg, ip administered 7 and 24 hrs after infection measured 16 hrs after final injection by tenfold serial dilution method relative to control. Type of assay: functional. Set-up: scale not given: the % may be the effect or the level left. Particulars: route intraperitoneal.

The test system of assay [8] is Mycobacterium intracellulare. Put plainly: Antimicrobial activity against Mycobacterium intracellular at 1 mg/mL by agar-well diffusion assay. Format: functional.
The test system of assay [9] is Candida albicans. Put plainly: Antifungal activity against Candida albicans NIH B311 infected in mouse tissue-burden model assessed as reduction in number of recovered colony-forming units assessed per mg of kidney at 3.5 mg/kg, ip administered 7 and 24 hrs after infection measured 16 hrs after final injection by tenfold serial dilution method relative to control. Type of assay: functional. Set-up: scale not given: the % may be the effect or the level left. Particulars: route intraperitoneal.

The subject of assay [10] is Trichophyton mentagrophytes. Put plainly: Antimicrobial activity against Trichophyton mentagrophytes at 1 mg/mL by agar-well diffusion assay. Format: functional.
In assay [11] the test system is Candida albicans. Put plainly: Antimicrobial activity against Candida albicans at 1 mg/mL by agar-well diffusion assay. Type of assay: functional. Particulars: Candida albicans; read-out: IZ.
Assay [12] deals with Aspergillus flavus. Put plainly: Antimicrobial activity against Aspergillus flavus at 1 mg/mL by agar-well diffusion assay. Format: functional.
In assay [13] the test system is Pseudomonas aeruginosa. Put plainly: Antimicrobial activity against Pseudomonas aeruginosa at 1 mg/mL by agar-well diffusion assay. Format: functional, organism-based.
The test system of assay [14] is Candida albicans. Put plainly: Antifungal activity against Candida albicans NIH B311 infected in mouse assessed as reduction in number of recovered colony-forming units assessed per mg of kidney at 20 mg/kg, ip administered 7 and 24 hrs after infection measured 16 hrs after final injection by tenfold serial dilution method relative to control. Type of assay: functional, organism-based. Set-up: dose 20 mg/kg.

The test system of assay [15] is Escherichia coli. Put plainly: Antimicrobial activity against Escherichia coli at 1 mg/mL by agar-well diffusion assay. Type of assay: functional, organism-based.
The subject of assay [16] is Bacillus subtilis. Put plainly: Antimicrobial activity against Bacillus subtilis at 1 mg/mL by agar-well diffusion assay. Format: functional, organism-based.

As to `COC(=O)C1=CC[C@@]23CC[C@@H]([C@@](C)(/C=C/C=C(\C)C(=O)O[C@@H]4O[C@H](CO)[C@@H](O)[C@H](O)[C@H]4O)OC2=O)[C@@]3(OC(C)=O)CC1`, the figures for the Activity in assay [1], in assay [7] and in assay [9] were 9.91%, 46.59% and 10%, respectively. Also, the result in assay [2], in assay [3], in [4], in [5], in assay [6] and in assay [8] was inactive. Further, the outcome in [10], in assay [12], in [13], in assay [14], in assay [15] and in assay [16] was inactive. Moreover, the zone of inhibition at 1000 µg/mL in assay [11] is < 1 mm.
